Results on five compounds are retold here after ChEMBL document CHEMBL3867439, “Affinity Crystallography: A New Approach to Extracting High-Affinity Enzyme Inhibitors from Natural Extracts” (J Nat Prod, 2016).

One assay addresses T1, Cathepsin K (Homo sapiens, UniProt P43235).
T1 sequence (P43235 whole entry): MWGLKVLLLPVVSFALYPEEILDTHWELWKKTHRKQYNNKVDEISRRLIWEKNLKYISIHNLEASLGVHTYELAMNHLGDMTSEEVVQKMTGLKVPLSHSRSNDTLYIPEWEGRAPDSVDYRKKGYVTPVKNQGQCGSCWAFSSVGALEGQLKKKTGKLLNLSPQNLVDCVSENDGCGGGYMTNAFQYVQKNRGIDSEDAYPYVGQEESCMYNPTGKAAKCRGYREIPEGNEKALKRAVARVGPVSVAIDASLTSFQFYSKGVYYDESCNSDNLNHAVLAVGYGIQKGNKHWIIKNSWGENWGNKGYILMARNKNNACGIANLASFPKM
The assay can be described thus: Competitive inhibition of human recombinant cathepsin K using Z-FR-MCA fluorogenic substrate by Dixon plot analysis.
Regarding `CC(C)[C@H](NC(=O)[C@H](CCCNC(=N)N)NC(=O)N[C@@H](Cc1ccccc1)C(=O)O)C(=O)NC1=CN(C(=N)N)CCC1`, the Ki was 393 nM.

With `CC(C)[C@H](NC(=O)[C@H](CCCNC(=N)N)NC(=O)N[C@@H](Cc1ccccc1)C(=O)O)C(=O)NC1CCCN(C(=N)N)C1=O` (stereo partly specified), the Ki was found to be 163 nM.

Take `CC(C)[C@H](NC(=O)[C@H](CCCNC(=N)N)NC(=O)N[C@@H](Cc1ccccc1)C(=O)O)C(=O)NC1CCCN(C(=N)N)C1O` (stereo in doubt; form 1): the Ki was determined as 105 nM.

On to `CC(C)[C@H](NC(=O)[C@H](CCCNC(=N)N)NC(=O)N[C@@H](Cc1ccccc1)C(=O)O)C(=O)NC1CCCN(C(=N)N)C1O` (stereo in doubt; form 2), for which the Ki was 69 nM.

Another assay concerns the target T1, Cathepsin K. Nature of the assay: Competitive inhibition of human recombinant cathepsin K using Z-FR-MCA fluorogenic substrate by Handerson plot analysis.
With `CC(C)[C@H](NC(=O)[C@H](CO)NC(=O)NCCCCNC(=N)N)C(=O)N[C@H]1CCCN(C(=N)N)C1O` (stereo partly specified), the Ki came out at 11 nM.

Regarding `CC(C)[C@H](NC(=O)[C@H](CCCNC(=N)N)NC(=O)N[C@@H](Cc1ccccc1)C(=O)O)C(=O)NC1CCCN(C(=N)N)C1O` (stereo in doubt; form 2), the Ki is 41 nM.

In general, Ki refers to the equilibrium dissociation constant of an inhibitor or competing ligand from its target.
